Assay results taken from patent publication US8362047B1, “Anti-cancer agents based on 4-(hetero)Ary1-1,2,5-oxadiazol-3-yl Amino derivatives and a method of making” (U.S. Department of Energy, priority 2010, dated 2013).

System: DU-145 cells
Experiment: Cell proliferation assay (Alamar-Blue) in DU-145 cells
Assay type: cell-based
Conditions: DU-145 human prostate carcinoma cells, 3 days incubation, Alamar-Blue fluorescence
Protocol: Protocol for Cell Proliferation Assay:
This homogeneous assay involves simply adding a single reagent, the Alamar-Blue to the cell culture and measuring the fluorescence intensity (excitation wavelength=530 nm, emission wavelength=590 nm) after an incubation step. The Alamar-Blue reagent utilizes the redox dye resazurin, which is not fluorescent, but upon reduction by metabolically active cells is converted into a highly fluorescent product (resorufin). A decrease in fluorescence in the presence of a test compound indicates reduced proliferation. This change in signal is proportional to the number of viable cells and used as a measure of relative cytotoxicity. Therefore, the fluorescence intensity observed in this assay is a true measure of the viable proliferative cells.
• 2 mM stock of Paclitaxel in DMSO. • DMSO—(dimethylsulfoxide) (Panreac, Cat. number 141954.1611) • Resazurin sodium salt (Sigma, R-7071). 50 mM stock in DMSO. Equipment • Biomek FX Laboratory Automated Workstation (Beckman Coulter Inc., Fullerton, Calif.) • CO2 incubator (VWR Science, USA) • Bright line Hemacytometer (Z359629, Sigma, Ill., USA) Materials • 384-deep well plates (Greiner, No 781270) • 384-well optical bottom tissue culture plates (Greiner, No. 82051-282) Propagation CONDITIONS: 37° C., air 95%; carbon dioxide (CO2) 5%, humidified atmosphere. SUBCULTURING: • Cells were grown in 175 cm^2 flasks to 90-100% of confluency. • Culture media (RPMI-1640 (Paneco, C310)+10% FBS (fetal bovine serum)) was aspirated and cell layer was briefly rinsed with 0.53 mM EDTA solution to remove all traces of serum. • 2 ml of 0.2% trypsin/0.53 mM EDTA (ethylenediaminetetraacetic acid) solution was added to cells. • Flasks were returned to incubator for 5 rain to allow cells detachment • Add 6.0 ml of complete growth medium. • Single cell suspension was created by gently pipetting. • Cells are counted using a Hematocytometer and suspension with desirable cell concentration is prepared.
To test proliferation inhibition DU-145 cells were plated in 384-well plate at the density 4000 cells/well. Next day 4 mM solutions of compounds in DMSO were diluted 100 times in medium and added to cells to final concentration 20 uM (40 ul of cells+40 ul of compounds). Taxol at final concentration 1 uM was used as positive control. Cells were incubated with compounds for 3 days. After that Alamar-Blue was added to cells to a final concentration of 50 uM. After incubation for 4-6 hours at 37° C., fluorescence in plate was read using fluorescence plate reader Wallac 1420 (530 nm excitation filter, 590 nm emission filter). Proliferation inhibition was calculated using formula: % INH=100*((Fnegative−compound signal)/(Fnegative−Fpositive)), • Fnegative—DMSO was added to cells (viable cells) • Fpositive—taxol (1 uM) was added to cells (number of cells at the first day of incubation)

IC50 (72 h) | IC50 | SMILES
290 nM |  | CCCCn1c(-c2nonc2NC(=O)c2ccccc2Cl)nc2ccccc21 [Example 1, 2-Chloro-N^1-[4-(1-butyl-1H-1,3-benzimidazol-2-yl)-1,2,5-oxadiazol-3-yl]benzamide]
280 nM |  | CC(C)Cn1c(-c2nonc2NC(=O)c2ccccc2Cl)nc2ccccc21 [Example 2, 2-Chloro-N^1-[4-(1-isobutyl-1H-1,3-benzimidazol-2-yl)-1,2,5-oxadiazol-3-yl]benzamide]
890 nM |  | C=CCn1c(-c2nonc2NC(=O)c2ccccc2Cl)nc2ccccc21 [Example 3, 2-Chloro-N^1-[4-(1-allyl-1H-1,3-benzimidazol-2-yl)-1,2,5-oxadiazol-3-yl]benzamide]
 | 320 nM | CCOC(=O)Cn1c(-c2nonc2NC(=O)c2ccccc2F)nc2ccccc21 [Example 4, Ethyl 2-(2-4-[(2-fluorobenzoyl)amino]-1,2,5-oxadiazol-3-yl-1H-1,3-benzimidazol-1-yl)acetate]
980 nM |  | CCOc1ccccc1C(=O)Nc1nonc1-c1ccc(OC)cc1 [Example 5, 2-Ethoxy-N^1-[4-(4-methoxyphenyl)-1,2,5-oxadiazol-3-yl]benzamide]
850 nM |  | CCCOc1ccccc1C(=O)Nc1nonc1-c1ccc(OC)cc1 [Example 6, 2-Propoxy-N^1-[4-(4-methoxyphenyl)-1,2,5-oxadiazol-3-yl]benzamide]
120 nM |  | CCOc1ccc(-c2nonc2NC(=O)c2ccccc2OCC)cc1 [Example 7, 2-Ethoxy-N^1-[4-(4-ethoxyphenyl)-1,2,5-oxadiazol-3-yl]benzamide]
340 nM |  | CCCOc1ccccc1C(=O)Nc1nonc1-c1ccc(OCC)cc1 [Example 8, 2-Propoxy-N^1-[4-(4-ethoxyphenyl)-1,2,5-oxadiazol-3-yl]benzamide]
860 nM |  | CCOc1ccc(-c2nonc2NC(=O)c2ccccc2OCC)cc1C [Example 10, 2-Ethoxy-N^1-[4-(4-ethoxy-3-methylphenyl)-1,2,5-oxadiazol-3-yl]benzamide]
930 nM |  | CCCOc1ccccc1C(=O)Nc1nonc1-c1ccc(OCC)c(C)c1 [Example 11, 2-Propoxy-N^1-[4-(4-ethoxy-3-methylphenyl)-1,2,5-oxadiazol-3-yl]benzamide]
950 nM |  | CCOc1ccc(-c2nonc2NC(=O)c2oc3ccc(Cl)cc3c2C)cc1 [Example 12, 5-chloro-N^2-[4-(4-ethoxyphenyl)-1,2,5-oxadiazol-3-yl]-3-methyl-1-benzofuran-2-carboxamide]

SMILES | IC50 (72 h) | IC50
CCCCOc1ccccc1C(=O)Nc1nonc1-c1ccc(OCC)cc1 [Example 9, 2-Butoxy-N^1-[4-(4-ethoxyphenyl)-1,2,5-oxadiazol-3-yl]benzamide] | 850 nM | 
